From patent US4760136A, “Chartreusin derivatives and salts thereof” (Ishihara Sangyo Kaisha, Ltd., priority 1984, dated 1988)

Key:
P-388 leukemia cells = assay: Antitumor activity: P-388 leukemia cells inoculated intraperitoneally, drug administered intravenously, BDF1 mice; format: in vivo; conditions: BDF1 mice, P-388 i.p.; for response vs control in vivo at 80 mg/kg: dose f: 80 mg/kg × 3, i.v. on days 1, 5 and 9; for response vs control in vivo at 50 mg/kg: dose d: 50 mg/kg × 3, i.v. on days 1, 5 and 9
Procedure: Into BDF1 mice were inoculated intraperitoneally P-388 leukemia cells at a rate of 1×10^6 cells/mouse, and each drug to be tested was administered intravenously on the first, fifth and ninth days after the inoculation. […] The drugs were as follows solutions prepared by adding physiological saline to each of compound Nos. 8, 9, 10, 11, 17, 34, 42, 59, 80 and 134; suspensions prepared by dispersing each of compound Nos. 41, 78, 98, 100, 130, 191, 212, 213, 215, 227 and 230 to 232 and a small amount of sodium carboxymethyl cellulose (Na.CMC) in physiological saline, […]

[1] = Acute toxicity, intravenous (once), ddY mice; format: in vivo; conditions: mouse, in vivo, iv, formulated per Preparation Example
Source text: In Table 7 are shown acute toxicity values (LD50, mg/kg) in ddY mice in the case of intravenously administering (once) each of the compounds of this invention in the form of preparations shown in the Preparation Examples shown in Table 7.

[2] = Mus musculus, P388, iv, dose c: 40 mg/kg × 3, i.v. on days 1, 5 and 9, read-out: T/C (%) of MST
[3] = Mus musculus, P388, iv, read-out: T/C (%) of MST
[4] = Mus musculus, P388, iv, dose b: 20 mg/kg × 3, i.v. on days 1, 5 and 9, read-out: T/C (%) of MST
[5] = dose b: 20 mg/kg × 3, i.v. on days 1, 5 and 9
[6] = dose c: 40 mg/kg × 3, i.v. on days 1, 5 and 9

SMILES | response vs control in vivo at 40 mg/kg (P-388 leukemia cells; [2]) [%] | LD50 [1] [mg/kg] | response vs control in vivo at 80 mg/kg (P-388 leukemia cells; [3]) [%] | further results
CCCCCC(=O)Oc1c2cccc(OC3OC(C)C4OC(c5ccccc5)OC4C3OC3OC(C)C(O)C(OC)C3O)c2c2oc(=O)c3c(C)ccc4oc(=O)c1c2c43 (stereo not shown) [Compound No. 196, 6-O-(n-Hexanoyl)-3',4'-O-Benzylidene-Chartreusin] | 208 | ≥ 80 |  | 
COC1C(O)C(C)OC(OC2C(Oc3cccc4c(OC(=O)CCCCCNC(=O)C(F)(F)F)c5c(=O)oc6ccc(C)c7c(=O)oc(c34)c5c67)OC(C)C3OC(C)(C)OC32)C1O (stereo not shown) [compound 98] |  | ≥ 100 | 187 | 
COC1C(O)C(C)OC(OC2C(Oc3cccc4c(OC(=O)C(CCSC)NC(=O)OCc5ccccc5)c5c(=O)oc6ccc(C)c7c(=O)oc(c34)c5c67)OC(C)C3OC(C)(C)OC32)C1O (stereo not shown) [Compound No. 63] |  | ≥ 120 |  | response vs control in vivo at 50 mg/kg (P-388 leukemia cells; [3]): 150%; response vs control in vivo at 100 mg/kg (P-388 leukemia cells; Mus musculus, P388, iv, dose g: 100 mg/kg × 3, i.v. on days 1, 5 and 9, read-out: T/C (%) of MST): 205%
CO[C@H]1[C@@H](O)[C@@H](C)O[C@H](O[C@H]2[C@H](Oc3cccc4c(OC(=O)c5ccc(C#N)cc5)c5c(=O)oc6ccc(C)c7c(=O)oc(c34)c5c67)O[C@H](C)[C@@H]3OC(C)(C)O[C@@H]32)[C@@H]1O [Compound No. 183] | 153 | ≥ 80 | 192 | 
CO[C@H]1[C@@H](O)[C@@H](C)O[C@H](O[C@H]2[C@H](Oc3cccc4c(OC(=O)c5cccc(N(C)C)c5)c5c(=O)oc6ccc(C)c7c(=O)oc(c34)c5c67)O[C@H](C)[C@@H]3OC(C)(C)O[C@@H]32)[C@@H]1O [compound 209] | 134 | ≥ 80 | 192 | 
COC1C(O)C(C)OC(OC2C(Oc3cccc4c(OC(=O)C(CN)C(C)C)c5c(=O)oc6ccc(C)c7c(=O)oc(c34)c5c67)OC(C)C3OC(c4ccccc4)OC32)C1O (stereo not drawn) [compound 35, 6-O-(α-isopropyl-β-alanyl)-3',4'-O-benzylidene-chartreusin phosphate] | 173 | ≥ 40 |  | 
CCC1OC2C(C)OC(Oc3cccc4c(OC(=O)CCNC(=O)C(F)(F)F)c5c(=O)oc6ccc(C)c7c(=O)oc(c34)c5c67)C(OC3OC(C)C(O)C(OC)C3O)C2O1 (stereo not shown) [compound 100] |  | ≥ 180 | 157 | 
COc1cccc(C(=O)Oc2c3cccc(O[C@@H]4O[C@H](C)[C@@H]5OC(CCc6ccccc6)O[C@@H]5[C@H]4O[C@H]4O[C@H](C)[C@H](O)[C@H](OC)[C@H]4O)c3c3oc(=O)c4c(C)ccc5oc(=O)c2c3c54)c1 (stereo partly shown) [compound 218] |  | ≥ 80 | 176 | 
CCC1(C)O[C@H]2[C@@H](O1)[C@@H](C)O[C@@H](Oc1cccc3c(OC(=O)CC(C)NC(=O)C(F)(F)F)c4c(=O)oc5ccc(C)c6c(=O)oc(c13)c4c56)[C@@H]2O[C@H]1O[C@H](C)[C@H](O)[C@H](OC)[C@H]1O (stereo partly shown) [compound 131] |  | ≥ 100 | 148 | 
COC1C(O)C(C)OC(OC2C(Oc3cccc4c(OC(=O)C(C)CNC(=O)C(F)(F)F)c5c(=O)oc6ccc(C)c7c(=O)oc(c34)c5c67)OC(C)C3OC(c4cccc(C(F)(F)F)c4)OC32)C1O (stereo not shown) [Compound No. 30] | 171 | ≥ 80 | 257 | 
COC1C(O)C(C)OC(OC2C(Oc3cccc4c(OC(=O)CCCCCNC(=O)C(F)(F)F)c5c(=O)oc6ccc(C)c7c(=O)oc(c34)c5c67)OC(C)C3OC(c4ccc(F)cc4)OC32)C1O (stereo not shown) [compound 97] |  | ≥ 30 |  | response vs control in vivo at 20 mg/kg (P-388 leukemia cells; [4]): 156%
COC1C(O)C(C)OC(OC2C(Oc3cccc4c(OC(=O)CCNC=O)c5c(=O)oc6ccc(C)c7c(=O)oc(c34)c5c67)OC(C)C3OC(c4cccc(Cl)c4)OC32)C1O (stereo not shown) [compound 90] |  | ≥ 30 |  | response vs control in vivo at 20 mg/kg (P-388 leukemia cells; [4]): 162%
COC1C(O)C(C)OC(OC2C(Oc3cccc4c(OC(=O)CCNC=O)c5c(=O)oc6ccc(C)c7c(=O)oc(c34)c5c67)OC(C)C3OC(c4ccccc4C)OC32)C1O (stereo not shown) [Compound No. 55] | 162 | ≥ 40 |  | 
COC1C(O)C(C)OC(OC2C(Oc3cccc4c(OC(=O)CCCCCCCNC(=O)C(F)(F)F)c5c(=O)oc6ccc(C)c7c(=O)oc(c34)c5c67)OC(C)C3OC(C)(C)OC32)C1O (stereo not shown) [compound 99] |  | ≥ 100 | 136 | 
COC1C(O)C(C)OC(OC2C(Oc3cccc4c(OC(=O)C(Cc5ccccc5)NC(=O)OCc5ccccc5)c5c(=O)oc6ccc(C)c7c(=O)oc(c34)c5c67)OC(C)C3OC(C)(C)OC32)C1O (stereo not shown) [compound 128] |  | ≥ 100 |  | response vs control in vivo at 50 mg/kg (P-388 leukemia cells; [3]): 146%
COC1C(O)C(C)OC(OC2C(Oc3cccc4c(OC(=O)C(Cc5c[nH]c6ccccc56)NC(=O)OCc5ccccc5)c5c(=O)oc6ccc(C)c7c(=O)oc(c34)c5c67)OC(C)C3OC(c4cccc(C(F)(F)F)c4)OC32)C1O (stereo not shown) [compound 101] | 171 | ≥ 80 | 225 | 
COC1C(O)C(C)OC(OC2C(Oc3cccc4c(OC(=O)CCCCCBr)c5c(=O)oc6ccc(C)c7c(=O)oc(c34)c5c67)OC(C)C3OC(C)(C)OC32)C1O (stereo not shown) [compound 235] | 145 | ≥ 60 |  | 
COC1C(O)C(C)OC(OC2C(Oc3cccc4c(OC(=O)CNC(=O)OCc5ccccc5)c5c(=O)oc6ccc(C)c7c(=O)oc(c34)c5c67)OC(C)C3OC(c4ccccc4)OC32)C1O (stereo not shown) [compound 104] | 137 |  |  | 
COC1C(O)C(C)OC(OC2C(Oc3cccc4c(OC(=O)c5cccc(Cl)c5)c5c(=O)oc6ccc(C)c7c(=O)oc(c34)c5c67)OC(C)C3OC(C)(C)OC32)C1O (stereo not shown) [compound 226] | 145 |  |  | 
COC1C(O)C(C)OC(OC2C(Oc3cccc4c(OC(=O)CCNC=O)c5c(=O)oc6ccc(C)c7c(=O)oc(c34)c5c67)OC(C)C3OC(c4ccccc4)OC32)C1O (stereo not shown) [Compound No. 20] | 248 |  |  | T/C (%) of MST (P-388 leukemia cells; [5]): 203%
COC1C(O)C(C)OC(OC2C(Oc3cccc4c(OC(=O)CCCOCc5ccccc5)c5c(=O)oc6ccc(C)c7c(=O)oc(c34)c5c67)OC(C)C3OC(c4ccccc4)OC32)C1O (stereo not shown) [Compound No. 165, 6-O-(4-benzyloxy-n-butyryl)-3',4'-O-Benzylidene-Chartreusin] |  |  |  | response vs control in vivo at 20 mg/kg (P-388 leukemia cells; [4]): 189%
COC1C(O)C(C)OC(OC2C(Oc3cccc4c(OC(=O)CCNC(=O)OCc5ccccc5)c5c(=O)oc6ccc(C)c7c(=O)oc(c34)c5c67)OC(C)C3OC(c4ccccc4)OC32)C1O (stereo not shown) [compound 103] | 146 |  | 203 | 
COC1C(O)C(C)OC(OC2C(Oc3cccc4c(OC(=O)C(C)CNC(=O)C(F)(F)F)c5c(=O)oc6ccc(C)c7c(=O)oc(c34)c5c67)OC(C)C3OC(c4ccccc4)OC32)C1O (stereo not shown) [Compound No. 44] |  |  | 217 | T/C (%) of MST (P-388 leukemia cells; [6]): 164%
COC1C(O)C(C)OC(OC2C(Oc3cccc4c(OC(=O)CCNC(=O)C(F)(F)F)c5c(=O)oc6ccc(C)c7c(=O)oc(c34)c5c67)OC(C)C3OC(c4ccccc4)OC32)C1O (stereo not shown) [Compound No. 21] |  |  |  | response vs control in vivo at 20 mg/kg (P-388 leukemia cells; [4]): 210%; T/C (%) of MST (P-388 leukemia cells; [6]): 229%
COC1C(O)C(C)OC(OC2C(Oc3cccc4c(OC(=O)CCNC=O)c5c(=O)oc6ccc(C)c7c(=O)oc(c34)c5c67)OC(C)C3OC(c4ccccc4)OC32)C1O (stereo not shown) [Compound No. 45] | 220 |  |  | T/C (%) of MST (P-388 leukemia cells; [5]): 164%
